Laboratory results reported in patent US20210070748A1, “INHIBITORS OF BRUTONS TYROSINE KINASE” (Pharmacyclics LLC, priority 2015, published 2021).
Read-outs that look alike come from different tables or passages of the source.

Key:
Format in all cases: biochemical
[1] = target: T1, JAK3 (Homo sapiens, UniProt P52333); assay: Inhibition of a panel of kinases, in vitro HotSpot kinase assay: JAK3; conditions: Table 10, Formula A-I; 1 μM ATP; read-out: JAK3 (IC50)
T1 sequence (P52333 1-1124): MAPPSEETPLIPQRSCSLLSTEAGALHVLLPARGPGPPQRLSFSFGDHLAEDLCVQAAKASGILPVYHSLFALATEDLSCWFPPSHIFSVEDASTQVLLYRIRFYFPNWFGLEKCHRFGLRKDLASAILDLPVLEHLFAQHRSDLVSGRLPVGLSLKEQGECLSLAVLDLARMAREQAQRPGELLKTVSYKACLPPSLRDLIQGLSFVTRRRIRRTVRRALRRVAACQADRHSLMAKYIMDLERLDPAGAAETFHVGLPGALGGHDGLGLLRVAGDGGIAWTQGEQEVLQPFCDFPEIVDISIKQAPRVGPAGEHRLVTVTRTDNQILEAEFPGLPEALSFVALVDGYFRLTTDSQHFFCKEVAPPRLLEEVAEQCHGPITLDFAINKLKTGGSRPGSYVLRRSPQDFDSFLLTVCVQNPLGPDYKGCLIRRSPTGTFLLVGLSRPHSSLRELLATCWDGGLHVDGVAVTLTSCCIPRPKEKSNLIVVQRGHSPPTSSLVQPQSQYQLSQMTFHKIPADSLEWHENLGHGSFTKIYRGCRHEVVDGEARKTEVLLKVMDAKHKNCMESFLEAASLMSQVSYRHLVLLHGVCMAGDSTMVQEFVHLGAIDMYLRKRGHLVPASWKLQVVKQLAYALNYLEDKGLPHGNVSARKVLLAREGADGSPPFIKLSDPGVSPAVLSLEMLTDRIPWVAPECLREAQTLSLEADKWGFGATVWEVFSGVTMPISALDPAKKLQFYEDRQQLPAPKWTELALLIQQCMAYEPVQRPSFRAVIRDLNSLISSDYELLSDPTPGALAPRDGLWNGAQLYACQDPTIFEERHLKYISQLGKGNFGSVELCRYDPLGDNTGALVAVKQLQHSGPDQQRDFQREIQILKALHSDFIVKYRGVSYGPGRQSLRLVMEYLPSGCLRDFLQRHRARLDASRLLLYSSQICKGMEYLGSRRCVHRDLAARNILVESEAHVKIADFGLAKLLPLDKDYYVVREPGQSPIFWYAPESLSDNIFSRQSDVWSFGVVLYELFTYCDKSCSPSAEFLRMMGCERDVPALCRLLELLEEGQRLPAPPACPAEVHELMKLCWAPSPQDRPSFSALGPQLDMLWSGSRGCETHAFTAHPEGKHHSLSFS

[2] = target: T2, BTK-WT (Homo sapiens, UniProt Q06187); assay: Btk in vitro inhibitory activity (one of Method A TR-FRET, Method B electrophoretic mobility shift, Method C radiometric filter binding)
T2 construct: purified from insect cells as a full-length construct containing an N-terminal 6X-His tag; His6 (N); made in house; host or cells: insect cells (baculovirus Sf21 in Method B)

[3] = target: T3, ITK (Homo sapiens, UniProt Q08881); assay: Inhibition of a panel of kinases, in vitro HotSpot kinase assay: ITK; conditions: E compounds, Table 17
T3 sequence (Q08881 1-620): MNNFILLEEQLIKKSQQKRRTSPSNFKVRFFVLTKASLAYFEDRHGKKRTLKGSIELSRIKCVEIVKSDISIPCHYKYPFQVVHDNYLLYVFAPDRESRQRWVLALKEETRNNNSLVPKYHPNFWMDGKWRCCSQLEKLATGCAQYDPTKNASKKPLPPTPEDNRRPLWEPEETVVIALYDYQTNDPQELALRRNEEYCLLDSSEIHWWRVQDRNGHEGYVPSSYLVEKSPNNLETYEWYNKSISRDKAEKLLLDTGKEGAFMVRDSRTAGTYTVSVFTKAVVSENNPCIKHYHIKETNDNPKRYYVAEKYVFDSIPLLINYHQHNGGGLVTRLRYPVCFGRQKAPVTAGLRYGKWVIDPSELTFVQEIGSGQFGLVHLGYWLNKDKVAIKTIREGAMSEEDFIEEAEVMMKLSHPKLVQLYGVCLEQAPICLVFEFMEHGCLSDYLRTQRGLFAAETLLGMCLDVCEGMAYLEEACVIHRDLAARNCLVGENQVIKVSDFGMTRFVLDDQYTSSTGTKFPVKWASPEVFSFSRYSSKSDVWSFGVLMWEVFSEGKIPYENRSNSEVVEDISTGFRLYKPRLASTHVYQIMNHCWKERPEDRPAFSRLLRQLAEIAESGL
Protocol: The degree of inhibition of a panel of kinases is determined using the in vitro HotSpot kinase assay (purified enzymes, ^33P-ATP, an appropriate substrate and 1 μM ATP).

[4] = Table 10, Formula A-I, read-out: BTK-WT (IC50)
[5] = E compounds, Table 17, read-out: IC50 BTK-WT

T2 sequence (Q06187 whole entry): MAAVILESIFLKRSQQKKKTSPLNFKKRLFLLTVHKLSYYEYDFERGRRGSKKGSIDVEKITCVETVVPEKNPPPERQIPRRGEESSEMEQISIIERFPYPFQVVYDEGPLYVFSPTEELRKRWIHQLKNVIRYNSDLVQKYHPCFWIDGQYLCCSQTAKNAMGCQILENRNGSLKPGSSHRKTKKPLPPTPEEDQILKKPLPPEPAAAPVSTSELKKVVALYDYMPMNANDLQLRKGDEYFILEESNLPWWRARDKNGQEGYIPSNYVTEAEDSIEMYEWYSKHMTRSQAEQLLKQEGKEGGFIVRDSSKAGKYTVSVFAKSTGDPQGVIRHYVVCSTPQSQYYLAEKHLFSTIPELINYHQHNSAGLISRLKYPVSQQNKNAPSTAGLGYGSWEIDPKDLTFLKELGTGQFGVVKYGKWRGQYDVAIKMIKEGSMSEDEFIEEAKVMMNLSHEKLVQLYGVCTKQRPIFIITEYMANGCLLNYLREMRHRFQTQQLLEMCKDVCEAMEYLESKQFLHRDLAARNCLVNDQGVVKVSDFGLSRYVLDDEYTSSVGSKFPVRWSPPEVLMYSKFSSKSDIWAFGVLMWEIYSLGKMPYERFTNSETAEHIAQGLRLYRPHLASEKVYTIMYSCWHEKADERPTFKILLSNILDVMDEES

SMILES	IC50 [1] [nM]	IC50 [2, 4] [nM]	IC50 [2, 5] [nM]	IC50 [3] [nM]
Cc1cc(Nc2nc(N3CCC[C@H](NC(=O)c4ccc(N(C)C)cc4)[C@@H]3CO)cnc2C(N)=O)sn1 (stereo in doubt) [Example A-67, 5-[(2R,3S)-3-[4-(dimethylamino)benzamido]-2-(hydroxymethyl)piperidin-1-yl]-3-[(3-methyl-1,2-thiazol-5-yl)amino]pyrazine-2-carboxamide]	100 to 1000	≤ 100	–	–
Cc1cc(Nc2nc(N3CCC[C@@H](NC(=O)c4ccc(N(C)C)cc4)[C@H]3CO)cnc2C(N)=O)sn1 (stereo in doubt) [Example A-68, 5-[(2S,3R)-3-[4-(dimethylamino)benzamido]-2-(hydroxymethyl)piperidin-1-yl]-3-[(3-methyl-1,2-thiazol-5-yl)amino]pyrazine-2-carboxamide]	> 10000	100 to 1000	–	–
Cc1cccc(C(=O)N[C@@H]2CCCN(c3cnc(C(N)=O)c(Nc4ccc(C5CCN(C6CCCC6)CC5)cc4)n3)C2)c1 [Example A-8, 3-{[4-(1-cyclopentylpiperidin-4-yl)phenyl]amino}-5-[(3R)-3-(3-methylbenzamido)piperidin-1-yl]pyrazine-2-carboxamide]	100 to 1000	≤ 100	–	–
Cc1cc(Nc2nc(N3CCC[C@@H](NC(=O)c4ccc(C(C)(C)C)cc4)C3)cnc2C(N)=O)sn1 [Example A-37, 5-[(3R)-3-(4-tert-butylbenzamido)piperidin-1-yl]-3-[(3-methyl-1,2-thiazol-5-yl)amino]pyrazine-2-carboxamide]	> 10000	≤ 100	–	–
CCn1cc2cc(C(=O)N[C@@H]3CCCN(c4cnc(C(N)=O)c(Nc5cc(C)ns5)n4)C3)ccc2n1 [Example A-38, N-[(3R)-1-{5-carbamoyl-6-[(3-methyl-1,2-thiazol-5-yl)amino]pyrazin-2-yl}piperidin-3-yl]-2-ethyl-2H-indazole-5-carboxamide]	1000 to 10000	≤ 100	–	–
Cc1cc(Nc2nc(N3CCC[C@@H](NC(=O)c4ccc(C5CC5)cc4F)C3)cnc2C(N)=O)sn1 [Example A-39, 5-[(3R)-3-(4-cyclopropyl-2-fluorobenzamido)piperidin-1-yl]-3-[(3-methyl-1,2-thiazol-5-yl)amino]pyrazine-2-carboxamide]	> 10000	≤ 100	–	–
Cc1cc(Nc2nc(N3CCC[C@@H](N(C)C(=O)c4ccc(C(C)C)cc4)C3)cnc2C(N)=O)sn1 [Example A-40, 3-[(3-methyl-1,2-thiazol-5-yl)amino]-5-[(3R)-3-[N-methyl4-(propan-2-yl)benzamido]piperidin-1-yl]pyrazine-2-carboxamide]	> 10000	≤ 100	–	–
Cc1cc(Nc2nc(N3CCC[C@@H](NC(=O)c4ccc(N(C)C)cc4)[C@H]3C)cnc2C(N)=O)sn1 [Example A-55, 5-[(2R,3R)-3-[4-(dimethylamino)benzamido]-2-methylpiperidin-1-yl]-3-[(3-methyl-1,2-thiazol-5-yl)amino]pyrazine-2-carboxamide]	100 to 1000	≤ 100	–	–
Cc1cc(Nc2nc(N3CCC[C@@H](NC(=O)c4ccc(C(C)C)cc4)[C@H]3C)cnc2C(N)=O)sn1 [Example A-56, 3-[(3-methyl-1,2-thiazol-5-yl)amino]-5-[(2R,3R)-2-methyl-3-[4-(propan-2-yl)benzamido]piperidin-1-yl]pyrazine-2-carboxamide]	1000 to 10000	≤ 100	–	–

Second part, the molecule after the results:

IC50 [1] [nM]	IC50 [2, 4] [nM]	IC50 [2, 5] [nM]	IC50 [3] [nM]	SMILES
–	–	≤ 10	≤ 10	C=CC(=O)N1CCC[C@@H](Nc2nnc(C(N)=O)c(Nc3ccc(CN[C@@H](C)C(C)(C)C)cc3)n2)C1 [Example E-57, 3-((R)-1-acryloylpiperidin-3-ylamino)-5-(4-(((S)-3,3-dimethylbutan-2-ylamino)methyl)phenyl-amino)-1,2,4-triazine-6-carboxamide]
–	–	≤ 10	100 to 1000	C=CC(=O)N[C@@H]1CCC[C@@H](Nc2nnc(C(N)=O)c(Nc3ccc(C(C)C)cc3)n2)C1 [Example E-58, 3-((1R,3R)-3-acrylamidocyclohexyl-amino)-5-(4-isopropylphenylamino)-1,2,4-triazine-6-carboxamide]
–	–	≤ 10	100 to 1000	C=CC(=O)N[C@H]1CCC[C@@H](Nc2nnc(C(N)=O)c(Nc3ccc(C(C)C)cc3)n2)C1 [Example E-59, 3-((1R,3S)-3-acrylamidocyclohexyl-amino)-5-(4-isopropylphenylamino)-1,2,4-triazine-6-carboxamide]
–	–	≤ 10	10 to 100	C=CC(=O)N1CCC[C@@H](Nc2nnc(C(N)=O)c(Nc3ccc(-c4cnn(C(=O)C=C)c4)cc3)n2)C1 [Example E-60, (R)-5-(4-(1-acryloyl-1H-pyrazol-4-yl)phenylamino)-3-(1-acryloylpiperidin-3-ylamino)-1,2,4-triazine-6-carboxamide]
–	–	≤ 10	10 to 100	C=CC(=O)N1CCC[C@@H](Nc2nnc(C(N)=O)c(Nc3cccc(-c4nccs4)c3)n2)C1 [Example E-70, (R)-3-(1-acryloylpiperidin-3-ylamino)-5-(3-(thiazol-2-yl)phenylamino)-1,2,4-triazine-6-carboxamide]
–	–	≤ 10	≤ 10	C=CC(=O)N1CCC[C@@H](Nc2nnc(C(N)=O)c(Nc3ccc4c(c3)CCC(=O)N4C)n2)C1 [Example E-71, (R)-3-(1-acryloylpiperidin-3-ylamino)-5-(1-methyl-2-oxo-1,2,3,4-tetrahydroquinolin-6-ylamino)-1,2,4-triazine-6-carboxamide]
–	–	10 to 100	1000 to 10000	CN1C(=O)CCc2cc(Nc3nc(N[C@@H]4CCCN(C(=O)OC(C)(C)C)C4)nnc3C(N)=O)ccc21 [Example E-72, (R)-tert-butyl 3-(6-carbamoyl-5-(1-methyl-2-oxo-1,2,3,4-tetrahydroquinolin-6-ylamino)-1,2,4-triazin-3-ylamino)piperidine-1-carboxylate]
–	–	≤ 10	100 to 1000	C=CC(=O)N1CCC[C@H](Nc2cnc(C(N)=O)c(Nc3ccc(-c4ncccn4)cc3)n2)C1 [Example E-94, (S)-5-(1-acryloylpiperidin-3-ylamino)-3-(4-(pyrimidin-2-yl)phenylamino)pyrazine-2-carboxamide]
–	–	≤ 10	100 to 1000	C=CC(=O)N1CCC[C@H](Nc2cnc(C(N)=O)c(Nc3ccc(C(C)C)cc3)n2)C1 [Example E-101, (S)-5-(1-acryloylpiperidin-3-ylamino)-3-(4-isopropylphenylamino) pyrazine-2-carboxamide]
–	–	≤ 10	≤ 10	CN(c1cnc(C(N)=O)c(Nc2ccc(C3(C)CCN(C4CC4)CC3)cc2)n1)[C@@H]1CCN(C(=O)C(F)(F)F)C1 [Example E-105, (R)-3-(4-(1-cyclopropyl-4-methylpiperidin-4-yl)phenylamino)-5-(methyl(1-(2,2,2-trifluoroacetyl)pyrrolidin-3-yl)amino)pyrazine-2-carboxamide]
–	–	≤ 10	≤ 10	CN(c1cnc(C(N)=O)c(Nc2ccc(C3(C)CCN(C4CCCC4)CC3)cc2)n1)[C@@H]1CCN(C(=O)C(F)(F)F)C1 [Example E-107, (R)-3-(4-(1-cyclopentyl-4-methylpiperidin-4-yl)phenylamino)-5-(methyl(1-(2,2,2-trifluoroacetyl)pyrrolidin-3-yl)amino)pyrazine-2-carboxamide]
